Common to all, as to assay type: cell-based
One test relates to Calu-1 cells. The test is described as follows: Anti-proliferation (viability) of NSCLC Calu-1 cells, 3 days (Table 7, FIG. 2B). The conditions noted are these: Homo sapiens, 72 h; Calu-1 cells, 3 days, 10-point serial dilution; read-out: GI IC50 in Calu-1. The gist of the method: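 Cells were exposed to heterobifunctional compounds across a 10-point serial dilution, for 3 days with Calu-1 and 6 days with T47D. A negative control was included that keeps the DDB1 ligand and linker but carries a modified warhead that impairs CDK4 binding.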

The subject of another test is MCF7 cells. Briefly: Anti-proliferation (viability) of MCF7 cells (Table 7, FIG. 2B). Particulars: Homo sapiens, MCF7, MCF7 cells, 3-6 days, 10-point serial dilution; read-out: GI IC50 in MCF-7.
In another test the test system is T47D cells. Briefly: Flow cytometric analysis of Annexin V/7-AAD stained T47D cells (apoptosis), 6 days (FIG. 3A). On the procedure: (§1) T47D cells were treated with DMSO, palbociclib, heterobifunctional compound CPD-10 for 6 days at doses approximating IC50and IC90 concentrations as indicated (FIG. 3A). HCC1428 cells were treated with DMSO, palbociclib, heterobifunctional compound CPD-10, or its negative control compound CPD-143 for 6 days at doses approximating IC90 concentrations as indicated (FIG. 3B). Cells were harvested by trypsinization, staining was carried out using the Annexin V Apoptosis Detection Kit. The percentages of early apoptotic (Annexin V^+7-AAD^−, lower right quadrant), late apoptotic (Annexin V^+7-AAD^+, upper right quadrant) and necrotic cells (Annexin V^−7-AAD^+, upper left quadrant) are indicated on dot plots.
In general terms: In flow cytometry, cells or beads pass a laser one at a time.

In the next test the test system is HCC1428 cells. The test is described as follows: Flow cytometric analysis of Annexin V/7-AAD stained HCC1428 cells (apoptosis), 6 days (FIG. 3B). Particulars: HCC1428, dose approximating IC90, 6 days. As to the method:
as §1

The subject of the next test is T47D parental cells. Briefly: CellTiter-Lumi cell viability assay, T47D parental cells, 6 days (FIG. 4). The conditions noted are these: Homo sapiens, 144 h. As to the method:
(§2) Furthermore, we developed one ER^+ breast cancer T47D model with acquired resistance after long period of treatment with 1 μM palbociclib (over IC90). Cells were deemed resistant when growing in the presence of palbo at the same rate as parental cells. Palbo resistance was determined by CellTiter-Lumi cell viability assay (FIG. 4, IC50>10,000 nM).

Test [1] deals with T47D palbo-resistant cells. The test is described as follows: CellTiter-Lumi cell viability assay, T47D palbo-resistant cells, 6 days (FIG. 4). Particulars: Homo sapiens, 144 h. As to the method: as §2
The next test relates to CCND1. The test is described as follows: Immunoblotting of CCND1 protein level in Calu-1 and MCF7 cells (FIG. 1A-1B). As to the method:
(§3) Calu-1 cells were treated with heterobifunctional compound CPD-10, or CDK4/6 inhibitor palbociclib at indicated concentrations for 4 hours (FIG. 1A). MCF7 cells were deprived of serum for 2 hours followed by treatment with CPD-10, or palbociclib at indicated concentrations for 24 hours (FIG. 1B).
(§4) Antibody and Reagent Anti-cyclin D1 (29785), anti-cyclin D2 (3741S), anti-cyclin D3 (2936S), anti-CDK4 (127905), anti-CDK6 (3136S), anti-phospho-Rb (8516S), anti-FoxM1 (54365), anti-cyclinA2(4656S), anti-vinculin antibody (187995) antibodies were purchased from Cell Signaling Technology. HRP-conjugated anti-α-tubulin antibody and anti-α-GAPDH antibody were purchased from GNI. Media, and other cell culture reagents were purchased from Thermo Fisher Scientific. CellTiter-Glo Luminescent Assay kit was purchased from Promega.
(§5) Calu-1, T47D, MCF7, HCC1428 and other cells were cultured at 37° C. with 5% CO2 in RPMI 1640 or DMEM medium supplemented with 10% fetal bovine serum. Cells were authenticated using the short tandem repeat (STR) assays. Mycoplasma test results were negative. For palbo-resistant cell model, T47D cells were cultured long-term to resistance in the presence of 1 μM Palbociclib. Cells were deemed resistant when growing in the presence of Palbo at the same rate as parental cells.
(§6) Cultured cells were washed with cold PBS once and lysed in cold RIPA buffer supplemented with protease inhibitors and phosphatase inhibitors (Beyotime Biotechnology). The solutions were then incubated at 4 ? for 30 min with gentle agitation to fully lysed cells. Cell lysates were centrifuged at 13,000 rpm for 10 min at 4 ? and pellets were discarded. Total protein concentrations in the lysates were determined following BCA assays (Beyotime Biotechnology). Cell lysates were mixed with Laemmli loading buffer and heated at 99° C. for 5 min. Proteins were resolved on SDS-PAGE and visualized using Western ECL Substrate kits on a ChemiDoc MP Imaging system (Bio-Rad). Protein bands were quantitated using the Image Lab software provided by Bio-Rad.

For another test, the system named is CCND3. Briefly: Immunoblotting of CCND3 protein level in Calu-1 and MCF7 cells (FIG. 1A-1B). As to the method:
as §3, §4, §5, §6
(In general: Immunoblotting shows a protein as a band on a membrane.)

The subject of the next test is cyclin A2. Briefly: Immunoblotting of cyclin A2 protein level (FIG. 1A-1B). Particulars: Calu-1 (4 hours), MCF7 (24 hours). On the procedure:
as §3, §4
(§7) Calu-1, T47D, MCF7, HCC1428 and other cells were cultured at 37° C. with 5% CO2 in RPMI 1640 or DMEM medium supplemented with 10% fetal bovine serum. Cells were authenticated using the short tandem repeat (STR) assays. […]
(§8) Cultured cells were washed with cold PBS once and lysed in cold RIPA buffer supplemented with protease inhibitors and phosphatase inhibitors (Beyotime Biotechnology). […] Total protein concentrations in the lysates were determined following BCA assays (Beyotime Biotechnology). […] Protein bands were quantitated using the Image Lab software provided by Bio-Rad.

Another test relates to p-Rb. The test is described as follows: Immunoblotting of Rb phosphorylation (FIG. 1A-1B). The conditions noted are these: Calu-1 (4 hours), MCF7 (24 hours). As to the method:
as §3, §4, §7, §8

Test [2] concerns T47D palbo-resistant cells. Briefly: Cell viability in T47D palbociclib-resistant model (FIG. 4). The conditions noted are these: 10-point serial dilution, 6 days. On the procedure: T47D cells were cultured long-term to resistance in the presence of 1 μM Palbociclib. Palbo resistance was determined by CellTiter-Lumi cell viability assay. T47D parental or palbo-resistant cells were treated with palbociclib, or heterobifunctional compounds CPD-10 or CPD-39 following a 10-point serial dilution for 6 days.
as §5
Cells were seeded at a density of 2,000-5,000 cells per well in 96-well assay plates and treated with test compounds following a 10-point serial dilution for 3-6 days. Cell viability was determined using the CellTiter-Lumi assay kit according to the manufacturer's instructions. The dose-response curves were determined and IC50 values were calculated using the GraphPad Prism software following a nonlinear regression (least squares fit) method. Data presented was mean±standard deviation (SD)unless otherwise indicated.

Another test has as its target CDK4 (Homo sapiens, UniProt P11802+Q16531). The test is described as follows: CDK4 percentage degradation in Calu-1 cells (Table 6). The arrangement: Cells that express cyclin D1-3 and CDK4/6 proteins were treated with heterobifunctional compounds; endogenous in cells; host or cells: Calu-1. The conditions noted are these: 16 hours. The gist of the method: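 Percentage degradation of Cyclin D1 and CDK4 derived from densitometry of ECL Western blots on lysates of Calu-1 cells. Treatment was 16 h with compound at either 40 nM or 200 nM.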

The mark [3] stands for this setting: MCF7 cells, serum deprived 2 hours, treated 24 hours.

The record followed here is patent US20260297081A1, “COMPOUNDS AND METHODS OF TREATING CANCERS” (Cullgen Inc., priority 2023, published 2026).

Sequence of CDK4 (P11802 2-303 limits assumed): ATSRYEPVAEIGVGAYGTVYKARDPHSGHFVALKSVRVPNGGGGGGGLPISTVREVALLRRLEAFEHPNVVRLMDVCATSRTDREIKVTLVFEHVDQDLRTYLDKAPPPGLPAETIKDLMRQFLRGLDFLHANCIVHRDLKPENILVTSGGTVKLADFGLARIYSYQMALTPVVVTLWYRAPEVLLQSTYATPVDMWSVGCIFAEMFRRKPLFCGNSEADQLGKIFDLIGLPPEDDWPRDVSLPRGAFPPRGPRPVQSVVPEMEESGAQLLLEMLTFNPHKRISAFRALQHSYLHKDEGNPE
Sequence of CDK4 (P24385 whole entry partner): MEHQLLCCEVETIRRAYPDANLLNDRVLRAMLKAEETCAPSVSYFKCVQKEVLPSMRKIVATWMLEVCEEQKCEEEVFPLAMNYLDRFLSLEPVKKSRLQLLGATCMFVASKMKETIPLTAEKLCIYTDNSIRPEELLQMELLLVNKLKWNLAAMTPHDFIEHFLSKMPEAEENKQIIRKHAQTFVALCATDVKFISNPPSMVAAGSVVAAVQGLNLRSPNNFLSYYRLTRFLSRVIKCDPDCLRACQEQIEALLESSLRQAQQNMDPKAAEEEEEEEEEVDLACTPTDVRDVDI
Sequence of CDK4 (Q16531 2-1140 limits assumed): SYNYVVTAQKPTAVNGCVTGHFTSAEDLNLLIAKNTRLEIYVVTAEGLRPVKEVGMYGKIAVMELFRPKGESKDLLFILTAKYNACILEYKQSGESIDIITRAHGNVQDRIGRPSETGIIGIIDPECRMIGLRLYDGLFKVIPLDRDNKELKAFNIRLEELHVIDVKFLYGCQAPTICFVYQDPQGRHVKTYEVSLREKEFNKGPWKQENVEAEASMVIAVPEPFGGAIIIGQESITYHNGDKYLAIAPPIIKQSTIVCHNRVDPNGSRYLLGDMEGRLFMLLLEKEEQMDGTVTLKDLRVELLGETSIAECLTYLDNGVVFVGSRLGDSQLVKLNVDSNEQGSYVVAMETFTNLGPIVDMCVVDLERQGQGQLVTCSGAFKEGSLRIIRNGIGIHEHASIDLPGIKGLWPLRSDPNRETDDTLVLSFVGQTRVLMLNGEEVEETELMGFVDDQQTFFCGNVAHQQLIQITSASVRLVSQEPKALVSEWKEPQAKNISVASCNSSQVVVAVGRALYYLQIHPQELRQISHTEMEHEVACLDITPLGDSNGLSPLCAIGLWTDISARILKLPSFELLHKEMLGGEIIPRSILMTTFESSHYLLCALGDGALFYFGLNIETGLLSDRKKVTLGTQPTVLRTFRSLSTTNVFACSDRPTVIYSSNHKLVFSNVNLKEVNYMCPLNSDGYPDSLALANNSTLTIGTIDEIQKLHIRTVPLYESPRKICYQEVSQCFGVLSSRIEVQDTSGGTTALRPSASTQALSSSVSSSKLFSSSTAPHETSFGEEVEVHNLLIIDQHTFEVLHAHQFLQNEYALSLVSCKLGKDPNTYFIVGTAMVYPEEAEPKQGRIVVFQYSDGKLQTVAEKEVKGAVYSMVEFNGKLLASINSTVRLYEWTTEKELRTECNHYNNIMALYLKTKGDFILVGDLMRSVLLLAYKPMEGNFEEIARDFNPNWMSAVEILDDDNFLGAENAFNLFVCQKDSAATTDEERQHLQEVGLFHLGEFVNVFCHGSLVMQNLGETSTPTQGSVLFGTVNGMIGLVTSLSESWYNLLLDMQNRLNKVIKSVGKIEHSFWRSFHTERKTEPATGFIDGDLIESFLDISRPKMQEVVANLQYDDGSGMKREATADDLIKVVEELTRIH

For orientation: IC50 means the concentration that gives 50% inhibition. A word on the inhibition: it is the drop in the measured response relative to a control, in per cent. Lower therefore signals a response near the control. In the case of `CNc1ccc(C(=O)Nc2ccc(N(C)C)nn2)c(NCCCCCCCNC(=O)CN2CCN(c3ccc(Nc4ncc5c(C)c(C(C)=O)c(=O)n(C6CCCC6)c5n4)nc3)CC2)n1` [CPD-10, 2-((7-(2-(4-(6-((6-acetyl-8-cyclopentyl-5-methyl-7-oxo-7,8-dihydropyrido[2,3-d]pyrimidin-2-yl)amino)pyridin-3-yl)piperazin-1-yl)acetamido)heptyl)amino)-N-(6-(dimethylamino)pyridazin-3-yl)-6-(methylamino)nicotinamide], the IC50 was at most 10 nM in the test on Calu-1 cells, 50 to 100 nM in the test with MCF7 cells, 19.5 nM with T47D parental cells and 33 nM in [1]. In addition, the results for the “Annexin V+ population” value in the test on T47D cells (15 nM), in the test on T47D cells (200 nM) and in the test with HCC1428 cells were 20.9%, 62.2% and 55.8%, respectively. The CCND1 protein level entry in the test with CCND1 (Calu-1 cells, 4 hours) was “reduced CCND1, CCND3, and CDK4 protein levels in a concentration-dependent manner in both cell lines”; in the test on CCND1 (setting [3]), “reduced CCND1, CCND3, and CDK4 protein levels in a concentration-dependent manner in both cell lines”. The CCND3 protein level entry is “reduced CCND1, CCND3, and CDK4 protein levels in a concentration-dependent manner in both cell lines” with CCND3 (Calu-1 cells, 4 hours); “reduced CCND1, CCND3, and CDK4 protein levels in a concentration-dependent manner in both cell lines” in the test on CCND3 (setting [3]). Also, the “cyclin A2 protein level” value in the test on cyclin A2 was “inhibited downstream FoxM1 and cyclin A2 protein levels, and Rb phosphorylation in a concentration-dependent manner”. Besides, the Rb phosphorylation result in the test with p-Rb is “inhibited downstream FoxM1 and cyclin A2 protein levels, and Rb phosphorylation in a concentration-dependent manner”. Besides, the “cell viability in palbociclib-resistant model” value in [2] was “remained effective in T47D palbo-resistant model”. This compound also returned an inhibition at 0.04 µM at CDK4 (40 nM) of 50 to 80%. In addition, at CDK4 (200 nM), the inhibition at 0.2 µM was above 80%.
